# From ChEMBL document CHEMBL3763023, “Amido/ureidosubstituted benzenesulfonamides-isatin conjugates as low nanomolar/subnanomolar inhibitors of the tumor-associated carbonic anhydrase isoform XII” (Eur J Med Chem, 2016)
# pKi: −log10 of the molar value.
# Target: Carbonic anhydrase 9 (Homo sapiens, UniProt Q16790)
# Test: Inhibition of recombinant human carbonic anhydrase 9 incubated for 15 mins prior to testing by stopped flow carbon dioxide hydrase assay
row,Structure (SMILES),pKi
1,NS(=O)(=O)c1ccc(NC(=O)Nc2ccc(/N=C3\C(=O)Nc4ccc(F)cc43)cc2)cc1,6.63
2,Cc1ccc2c(c1)/C(=N/c1ccc(NC(=O)Nc3ccc(S(N)(=O)=O)cc3)cc1)C(=O)N2,7.78
3,NS(=O)(=O)c1ccc(NC(=O)c2ccc(/N=C3\C(=O)Nc4ccc(Br)cc43)cc2)cc1,6.68
4,NS(=O)(=O)c1ccc(NC(=O)Nc2ccc(/N=C3\C(=O)Nc4ccc(Br)cc43)cc2)cc1,6.72
5,NS(=O)(=O)c1ccc(NC(=O)c2ccc(/N=C3\C(=O)Nc4ccccc43)cc2)cc1,6.62

# Second part, the compound after the results:
row,pKi,Structure (SMILES)
1,6.62,NS(=O)(=O)c1ccc(NC(=O)Nc2ccc(/N=C3\C(=O)Nc4ccc(Cl)cc43)cc2)cc1
2,6.66,NS(=O)(=O)c1ccc(NC(=O)Nc2ccc(/N=C3\C(=O)Nc4ccccc43)cc2)cc1
3,7.83,NS(=O)(=O)c1ccc(NC(=O)Nc2ccc(/N=C3\C(=O)Nc4ccc([N+](=O)[O-])cc43)cc2)cc1
4,6.71,NS(=O)(=O)c1ccc(NC(=O)c2ccc(/N=C3\C(=O)Nc4ccc(Cl)cc43)cc2)cc1
5,6.80,Nc1ccc(C(=O)Nc2ccc(S(N)(=O)=O)cc2)cc1
6,8.30,NS(=O)(=O)c1ccc(/N=C2\C(=O)Nc3ccc([N+](=O)[O-])cc32)cc1

# Target: Carbonic anhydrase 2 (Homo sapiens, UniProt P00918)
# Test: Inhibition of recombinant human carbonic anhydrase 2 incubated for 15 mins prior to testing by stopped flow carbon dioxide hydrase assay
row,pKi,Structure (SMILES)
1,< 5.00,NS(=O)(=O)c1ccc(NC(=O)Nc2ccc(/N=C3\C(=O)Nc4ccc(Br)cc43)cc2)cc1
